Key:
[1] = target: FGFR3-BAIAP2L1 Ba/F3 cells (Homo sapiens, UniProt P22607); assay: Ba/F3 cell viability assay (CellTiter-Glo 2.0), FGFR3-BAIAP2L1 Ba/F3; type: cell-based; settings: for Ba/F3 FGFR1/FGFR3 Selectivity: FGFR3 > FGFR1 selectivity ratio in Ba/F3 FGFR fusion cell based assays; for IC50: read-out: Ba/F3 Cells FGFR3 (IC50 nM), FGFR3-BAIAP2L1 Ba/F3 cells, 48 hours, Cell Titer Glo 2.0
Method in brief: (§1)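 Viability read as ATP luminescence (CellTiter-Glo 2.0) after 48 h compound exposure, normalized to DMSO-treated cells and fitted with a 4-parameter curve for IC50. Cells: Ba/F3 dependent on FGFR1-BCR or FGFR3-BAIAP2L1 fusion kinase; top dose 30 μM, 10-fold steps, 9 doses in triplicate.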

FGFR1-BCR Ba/F3 cells = FGFR1-BCR Ba/F3 cells (Homo sapiens, UniProt P11362); assay: Ba/F3 cell viability assay (CellTiter-Glo 2.0), FGFR1-BCR Ba/F3; type: cell-based; settings: read-out: Ba/F3 Cells FGFR1 (IC50 nM), 48 hours, Cell Titer Glo 2.0
Chain of FGFR1-BCR Ba/F3 cells (P11362 22-822 limits assumed, change not shown): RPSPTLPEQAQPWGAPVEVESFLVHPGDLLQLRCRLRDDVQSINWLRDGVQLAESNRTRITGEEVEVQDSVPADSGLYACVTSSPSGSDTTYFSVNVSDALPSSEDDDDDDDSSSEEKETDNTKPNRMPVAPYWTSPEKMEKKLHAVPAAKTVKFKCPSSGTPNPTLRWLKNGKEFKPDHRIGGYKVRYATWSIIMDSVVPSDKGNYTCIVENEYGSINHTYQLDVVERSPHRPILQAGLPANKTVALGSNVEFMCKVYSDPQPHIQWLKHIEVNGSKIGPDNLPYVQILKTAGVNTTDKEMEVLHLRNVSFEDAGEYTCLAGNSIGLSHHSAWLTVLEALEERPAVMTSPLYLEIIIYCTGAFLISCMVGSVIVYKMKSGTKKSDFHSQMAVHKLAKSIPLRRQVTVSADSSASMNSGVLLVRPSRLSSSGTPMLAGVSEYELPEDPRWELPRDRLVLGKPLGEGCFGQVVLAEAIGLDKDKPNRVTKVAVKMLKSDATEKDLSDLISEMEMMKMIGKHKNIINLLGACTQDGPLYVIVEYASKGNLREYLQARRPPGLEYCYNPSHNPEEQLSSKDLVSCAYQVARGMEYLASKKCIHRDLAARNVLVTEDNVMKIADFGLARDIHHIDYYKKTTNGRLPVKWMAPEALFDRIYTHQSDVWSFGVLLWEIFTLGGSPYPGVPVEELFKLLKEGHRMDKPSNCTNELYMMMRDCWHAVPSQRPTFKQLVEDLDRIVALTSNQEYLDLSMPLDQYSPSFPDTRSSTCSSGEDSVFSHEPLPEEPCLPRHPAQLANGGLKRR
Method in brief: as §1

[2] = system: RT112/84 cells (FGFR3-fusion); assay: RT112/84 cancer cell line cell viability assay (CellTiter-Glo 2.0); type: cell-based; settings: Homo sapiens, 72 hours, Cell Titer Glo 2.0
Method in brief: (§2)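 Viability was measured as cellular ATP by CellTiter-Glo 2.0 luminescence after 72 h compound exposure, using nine 10-fold doses from 30 μM, in triplicate. Cells were plated at 10,000/well in RPMI1640 with 10% FBS the day before dosing. Signal was expressed as % of DMSO-treated control, and IC50 came from a 4-parameter fit.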

[3] = system: UM-UC-14 cells (FGFR3(S249C)); assay: UM-UC-14 cancer cell line cell viability assay (CellTiter-Glo 2.0); type: cell-based; settings: UMUC14, 72 hours, Cell Titer Glo 2.0
Description: Experimental Purpose: To detect the change of intracellular ATP by Cell Titer-Glo® and to evaluate the inhibitory effect of the compounds on cancer cell lines by determining the in vitro IC50 value of the compounds.
Cell Titer-Glo® 2.0 Luminescent cell viability assay reagent was purchased from Promega (Madison, WI). RT112/84 and KG-1 cell lines were purchased from American Type Culture Collection (Manassas, VA). UM-UC-14 cell line was purchased from Sigma (St. Louis, MO). RT112/84, UM-UC-14, and KG-1 cells were cultured in RPMI1640 media supplemented with 10% fetal bovine serum. Cultures were maintained at 37° C. in a humidified atmosphere of 5% C02 and 95% air.
Cell Viability Assay Procedure: Cells were plated in 96-well clear bottom/white plates (Corning #3903) at 10,000 cells/well in 100 μl of media, incubated overnight. The next day, test compound DMSO stock solutions were made at 10 mM and 2 μM final concentration. Compounds were then added to cells in a 9-dose, 10-fold dilution series starting at 30 μM with an HP 300e Digital Dispenser (each dose was applied in triplicate). DMSO was backfilled to each well up to 301 nL total volume of test compound+DMSO, and a total of 301 nL DMSO was added to a control/no test compound well in triplicate. The cells in cell culture plates were incubated with the compounds at 37° C. and 5% C02 for 72 hours. Then 50 μl of Cell Titer Glo 2.0 reagent was added to each well of the cell culture plates. The contents were covered from light and mixed on an orbital shaker at room temperature for 10 min. Luminescence was recorded by a Synergy H1 Microplate Reader (Biotek, Winooski, VT). Cells were assessed as a percentage of DMSO only treated control cells. Curves were plotted and IC50 values were calculated using the GraphPad Prism 8 program based on a sigmoidal dose-response equation (4 parameter).

[4] = system: KG-1 cells (FGFR1-fusion); assay: KG-1 cancer cell line cell viability assay (CellTiter-Glo 2.0); type: cell-based; settings: Homo sapiens, 72 hours, Cell Titer Glo 2.0
Method in brief: as §2

FGFR1 = FGFR1 (Homo sapiens (Human), UniProt P11362); assay: Kinase assay, binding constants (Kd), kinase-tagged T7 phage, qPCR
Chain of FGFR1 (P11362 22-822): as the sequence (P11362 22-822 limits assumed, change not shown) above
Method in brief: (§3)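 Using T7 phage lysates from BL21-derived E. coli, compounds at 0.9% final DMSO competed for kinase binding to ligand-bearing magnetic beads. After elution, qPCR measured remaining kinase, and Kds were fitted by non-linear least squares with the Hill slope fixed at −1.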

FGFR2 = FGFR2 (Homo sapiens (Human), UniProt P21802); assay: as above
Chain of FGFR2 (P21802 22-821): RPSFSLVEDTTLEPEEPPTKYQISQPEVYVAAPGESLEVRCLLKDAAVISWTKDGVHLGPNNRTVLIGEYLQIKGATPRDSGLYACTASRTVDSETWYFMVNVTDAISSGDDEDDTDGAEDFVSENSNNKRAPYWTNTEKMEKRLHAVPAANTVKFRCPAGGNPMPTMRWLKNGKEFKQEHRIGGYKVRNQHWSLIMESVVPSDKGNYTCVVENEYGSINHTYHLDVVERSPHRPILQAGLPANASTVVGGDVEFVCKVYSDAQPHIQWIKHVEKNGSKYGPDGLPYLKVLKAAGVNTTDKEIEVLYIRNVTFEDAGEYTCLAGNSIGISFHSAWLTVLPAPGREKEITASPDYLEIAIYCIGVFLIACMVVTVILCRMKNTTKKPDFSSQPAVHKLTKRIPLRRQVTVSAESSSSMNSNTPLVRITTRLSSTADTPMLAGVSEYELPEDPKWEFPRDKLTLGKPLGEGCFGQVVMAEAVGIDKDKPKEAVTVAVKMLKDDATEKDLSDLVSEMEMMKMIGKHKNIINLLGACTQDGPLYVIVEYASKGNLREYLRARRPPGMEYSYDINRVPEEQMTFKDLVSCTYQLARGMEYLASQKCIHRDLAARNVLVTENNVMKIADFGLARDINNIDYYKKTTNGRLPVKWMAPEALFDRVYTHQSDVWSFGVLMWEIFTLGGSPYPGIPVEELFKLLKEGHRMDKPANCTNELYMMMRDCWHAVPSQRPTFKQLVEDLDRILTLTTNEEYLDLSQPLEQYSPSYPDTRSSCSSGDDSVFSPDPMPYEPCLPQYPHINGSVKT
Method in brief: as §3

FGFR3 = FGFR3 (Homo sapiens (Human), UniProt P22607); assay: as above
Chain of FGFR3 (P22607 23-806): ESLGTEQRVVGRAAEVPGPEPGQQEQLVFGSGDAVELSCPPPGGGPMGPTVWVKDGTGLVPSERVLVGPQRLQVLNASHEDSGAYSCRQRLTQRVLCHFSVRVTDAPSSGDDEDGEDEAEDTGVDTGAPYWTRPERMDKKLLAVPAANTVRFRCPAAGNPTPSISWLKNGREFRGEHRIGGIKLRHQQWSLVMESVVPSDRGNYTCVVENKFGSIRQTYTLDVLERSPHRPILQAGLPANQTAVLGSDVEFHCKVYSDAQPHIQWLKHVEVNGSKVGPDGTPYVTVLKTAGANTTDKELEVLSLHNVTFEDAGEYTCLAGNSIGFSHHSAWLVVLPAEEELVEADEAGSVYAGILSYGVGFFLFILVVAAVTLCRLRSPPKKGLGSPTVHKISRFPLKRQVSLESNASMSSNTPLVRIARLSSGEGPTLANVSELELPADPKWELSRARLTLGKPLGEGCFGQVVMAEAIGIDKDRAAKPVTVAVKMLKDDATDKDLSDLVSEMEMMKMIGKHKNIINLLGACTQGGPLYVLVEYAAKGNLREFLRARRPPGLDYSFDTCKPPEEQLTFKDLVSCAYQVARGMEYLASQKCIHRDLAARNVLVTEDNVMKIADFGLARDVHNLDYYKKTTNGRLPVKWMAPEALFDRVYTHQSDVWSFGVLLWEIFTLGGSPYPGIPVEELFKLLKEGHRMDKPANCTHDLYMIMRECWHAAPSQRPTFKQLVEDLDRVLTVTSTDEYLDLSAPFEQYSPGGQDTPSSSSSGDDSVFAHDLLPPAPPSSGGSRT
Method in brief: as §3

FGFR3 (V555M) = FGFR3 (V555M) (Homo sapiens (Human), UniProt P22607, V555M); assay: as above; settings: V555M mutant
Chain of FGFR3 (V555M) (P22607 23-806 V555M): as the sequence (P22607 23-806) above, with V533M counted along it
Method in brief: as §3

FGFR4 = FGFR4 (Homo sapiens (Human), UniProt P22455); assay: as above
Chain of FGFR4 (P22455 22-802): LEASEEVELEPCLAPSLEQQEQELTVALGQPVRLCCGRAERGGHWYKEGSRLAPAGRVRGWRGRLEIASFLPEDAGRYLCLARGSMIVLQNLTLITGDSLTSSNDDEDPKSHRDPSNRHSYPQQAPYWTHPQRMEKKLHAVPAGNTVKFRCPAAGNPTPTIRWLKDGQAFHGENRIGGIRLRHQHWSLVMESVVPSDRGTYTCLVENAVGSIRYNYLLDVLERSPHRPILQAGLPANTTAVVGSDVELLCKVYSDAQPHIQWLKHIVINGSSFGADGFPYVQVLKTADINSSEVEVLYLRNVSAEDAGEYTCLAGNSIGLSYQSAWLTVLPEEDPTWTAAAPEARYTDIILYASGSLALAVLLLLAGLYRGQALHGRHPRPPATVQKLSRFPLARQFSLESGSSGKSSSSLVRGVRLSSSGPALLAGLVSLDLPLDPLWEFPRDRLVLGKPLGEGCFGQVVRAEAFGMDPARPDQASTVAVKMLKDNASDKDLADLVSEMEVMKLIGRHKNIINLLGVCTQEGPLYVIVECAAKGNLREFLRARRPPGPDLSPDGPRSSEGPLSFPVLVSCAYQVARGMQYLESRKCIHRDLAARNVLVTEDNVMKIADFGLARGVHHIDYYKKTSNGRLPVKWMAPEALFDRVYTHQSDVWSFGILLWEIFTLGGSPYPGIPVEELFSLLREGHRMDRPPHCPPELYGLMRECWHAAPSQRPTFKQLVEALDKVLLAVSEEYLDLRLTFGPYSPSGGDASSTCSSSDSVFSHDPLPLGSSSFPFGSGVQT
Method in brief: as §3

Chain of FGFR3-BAIAP2L1 Ba/F3 cells (P22607 23-806 limits assumed, change not shown): as the sequence (P22607 23-806) above

Compound	Ba/F3 FGFR1/FGFR3 Selectivity [1]	IC50 [1] [nM]	IC50 (FGFR1-BCR Ba/F3 cells) [nM]	IC50 [2] [nM]	IC50 [3] [nM]	IC50 [4] [nM]	Kd (FGFR1) [nM]	Kd (FGFR2) [nM]	Kd (FGFR3) [nM]	Kd (FGFR3 (V555M)) [nM]	Kd (FGFR4) [nM]
C[C@@H](Oc1ccc2[nH]nc(-c3ccc(N4CC5(CCCS(=O)(=O)C5)C4)nc3)c2c1)c1c(Cl)cncc1Cl [Example 159, 2-[5-[5-[(1R)-1-(3,5-dichloro-4-pyridyl)ethoxy]-1H-indazol-3-yl]-2-pyridyl]-6λ^6-thia-2-azaspiro[3.5]nonane 6,6-dioxide]	16	1 to 20	20 to 100	1 to 20	20 to 100	1 to 20	1 to 20	1 to 20	1 to 20	1 to 20	1 to 20
C[C@@H](Oc1ccc2[nH]nc(-c3ccc(N4CCC5(CC4)C(=O)NCCN5C)nc3)c2c1)c1c(Cl)cncc1Cl [Example 34, 9-[5-[5-[(1R)-1-(3,5-dichloro-4-pyridyl)ethoxy]-1H-indazol-3-yl]-2-pyridyl]-1-methyl-1,4,9-triazaspiro[5.5]undecan-5-one]	28	1 to 20	20 to 100	1 to 20	1 to 20	20 to 100	1 to 20	1 to 20	1 to 20	1 to 20	1 to 20
C[C@@H](Oc1ccc2[nH]nc(-c3cnc(N4CCC5(CCC(=O)N5)CC4)nc3)c2c1)c1c(Cl)cncc1Cl [Example 48, 8-[5-[5-[(1R)-1-(3,5-dichloro-4-pyridyl)ethoxy]-1H-indazol-3-yl]pyrimidin-2-yl]-1,8-diazaspiro[4.5]decan-2-one]	8	20 to 100	100 to 300	20 to 100	20 to 100	100 to 300	20 to 100	20 to 100	1 to 20	1 to 20	1 to 20
C[C@@H](Oc1ccc2[nH]nc(-c3cnc(N4CCN(C(=O)N5CCN(C)CC5)CC4)nc3)c2c1)c1c(Cl)cncc1Cl [Example 15, [4-[5-[5-[(1R)-1-(3,5-dichloro-4-pyridyl)ethoxy]-1H-indazol-3-yl]pyrimidin-2-yl]piperazin-1-yl]-(4-methylpiperazin-1-yl)methanone]	10	20 to 100	> 300	1 to 20	1 to 20	20 to 100	1 to 20	1 to 20	1 to 20	1 to 20	1 to 20
C[C@@H](Oc1ccc2[nH]nc(-c3ccc(N4CCC5(CCN(C)C5)CC4)nc3)c2c1)c1c(Cl)cncc1Cl [Example 32, 8-[5-[5-[(1R)-1-(3,5-dichloro-4-pyridyl)ethoxy]-1H-indazol-3-yl]-2-pyridyl]-2-methyl-2,8-diazaspiro[4.5]decane]	12	1 to 20	100 to 300	1 to 20	1 to 20	20 to 100	1 to 20	1 to 20	1 to 20	1 to 20	1 to 20
C[C@@H](Oc1ccc2[nH]nc(-c3ccc(N4CCN(C(N)=O)CC4)nc3)c2c1)c1c(Cl)cncc1Cl [Example 12, 4-[5-[5-[(1R)-1-(3,5-dichloro-4-pyridyl)ethoxy]-1H-indazol-3-yl]-2-pyridyl]piperazine-1-carboxamide]	19	1 to 20	100 to 300	1 to 20	1 to 20	20 to 100	1 to 20	1 to 20	1 to 20	1 to 20	1 to 20
C[C@@H](Oc1ccc2[nH]nc(-c3cnc(N4CCC5(CCN(C)C5=O)CC4)nc3)c2c1)c1c(Cl)cncc1Cl [Example 51, 8-[5-[5-[(1R)-1-(3,5-dichloro-4-pyridyl)ethoxy]-1H-indazol-3-yl]pyrimidin-2-yl]-2-methyl-2,8-diazaspiro[4.5]decan-1-one]	7	20 to 100	100 to 300	20 to 100	20 to 100	100 to 300	20 to 100	20 to 100	1 to 20	1 to 20	1 to 20
C[C@@H](Oc1ccc2[nH]nc(-c3cnc(N4CCC5(CCC(=O)N5C)CC4)nc3)c2c1)c1c(Cl)cncc1Cl [Example 54, 8-[5-[5-[(1R)-1-(3,5-dichloro-4-pyridyl)ethoxy]-1H-indazol-3-yl]pyrimidin-2-yl]-1-methyl-1,8-diazaspiro[4.5]decan-2-one]	13	1 to 20	100 to 300	1 to 20	1 to 20	100 to 300	1 to 20	1 to 20	1 to 20	1 to 20	1 to 20
C[C@@H](Oc1ccc2[nH]nc(-c3ccc(N4CCN(C(=O)N(C)C)CC4)nc3)c2c1)c1c(Cl)cncc1Cl [Example 5, 4-[5-[5-[(1R)-1-(3,5-dichloro-4-pyridyl)ethoxy]-1H-indazol-3-yl]-2-pyridyl]-N,N-dimethyl-piperazine-1-carboxamide]	22	1 to 20	100 to 300	1 to 20	1 to 20	20 to 100	1 to 20	1 to 20	1 to 20	1 to 20	1 to 20
C[C@@H](Oc1ccc2[nH]nc(-c3ccc(N4CCN(S(C)(=O)=O)C5(CC5)C4)nc3)c2c1)c1c(Cl)cncc1Cl [Example 22, 5-[(1R)-1-(3,5-dichloro-4-pyridyl)ethoxy]-3-[6-(4-methylsulfonyl-4,7-diazaspiro[2.5]octan-7-yl)-3-pyridyl]-1H-indazole]	11	1 to 20	100 to 300	1 to 20	1 to 20	20 to 100	20 to 100	20 to 100	1 to 20	1 to 20	1 to 20
C[C@@H](Oc1ccc2[nH]nc(-c3cnc(N4CCN(C(=O)N(C)C)CC4)nc3)c2c1)c1c(Cl)cncc1Cl [Example 19, 4-[5-[5-[(1R)-1-(3,5-Dichloro-4-pyridyl)ethoxy]-1H-indazol-3-yl]pyrimidin-2-yl]-N,N-dimethyl-piperazine-1-carboxamide]	15	1 to 20	100 to 300	1 to 20	1 to 20	100 to 300	1 to 20	100 to 300	1 to 20	1 to 20	1 to 20
CCC(=O)N1CCN(c2ccc(-c3n[nH]c4ccc(O[C@H](C)c5c(Cl)cncc5Cl)cc34)cn2)CC1 [Example 9, 1-[4-[5-[5-[(1R)-1-(3,5-dichloro-4-pyridyl)ethoxy]-1H-indazol-3-yl]-2-pyridyl]piperazin-1-yl]propan-1-one]	19	1 to 20	100 to 300	1 to 20	1 to 20	20 to 100	1 to 20	1 to 20	1 to 20	1 to 20	1 to 20
